Data taken from patent US20220313701A1, “MODULATORS OF TREX1” (Constellation Pharmaceuticals, Inc., priority 2019, published 2022).
Each block holds one compound with its values, some of them ahead of it.

Legend:
[1] = target: T1, human TREX2 (residues M44-A279) (Homo sapiens, UniProt Q9BQ50); test: TREX2 Biochemical Assay (fluorescence assay, degradation of dsDNA substrate); settings: 2.5 nM TREX2, 60 nM dsDNA substrate, 25 minutes at room temperature
T1 construct: human TREX2 (residues M44-A279, expressed in E. coli); His-Tev (His tag with TEV site) (N); made in house; host or cells: E. coli
T1 sequence (Q9BQ50 44-279 isoform Q9BQ50-1): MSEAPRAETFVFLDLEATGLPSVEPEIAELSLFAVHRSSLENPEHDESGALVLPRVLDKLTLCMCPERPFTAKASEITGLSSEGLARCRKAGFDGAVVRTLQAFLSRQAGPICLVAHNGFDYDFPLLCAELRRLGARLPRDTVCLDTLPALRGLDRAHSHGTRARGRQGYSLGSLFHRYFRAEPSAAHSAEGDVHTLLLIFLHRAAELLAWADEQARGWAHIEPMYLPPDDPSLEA
Summary of the method: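 Final conditions: 2.5 nM His-Tev-tagged TREX2 (E. coli-expressed), 60 nM fluorophore/quencher-labelled dsDNA, 50 mM Tris pH 7.4, 150 mM NaCl, 100 mM MgCl2, 1% DMSO; 10-point compound dose-response. Incubated 25 min at room temperature, then EDTA-quenched; fluorescence read at ex 570/em 615 nm. IC50 from four-parameter fit against pre-quenched and no-inhibitor controls.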

[2] = target: T2, full length human TREX1 (Homo sapiens, UniProt Q9NSU2); test: TREX1 Biochemical Assay (fluorescence assay, degradation of dsDNA substrate); settings: 150 pM TREX1, 60 nM dsDNA substrate, 25 minutes at room temperature
T2 construct: N-terminally His-Tev tagged full length human TREX1; His-Tev (His tag with TEV site) (N); made in house; host or cells: E. coli
T2 sequence (Q9NSU2 1-314): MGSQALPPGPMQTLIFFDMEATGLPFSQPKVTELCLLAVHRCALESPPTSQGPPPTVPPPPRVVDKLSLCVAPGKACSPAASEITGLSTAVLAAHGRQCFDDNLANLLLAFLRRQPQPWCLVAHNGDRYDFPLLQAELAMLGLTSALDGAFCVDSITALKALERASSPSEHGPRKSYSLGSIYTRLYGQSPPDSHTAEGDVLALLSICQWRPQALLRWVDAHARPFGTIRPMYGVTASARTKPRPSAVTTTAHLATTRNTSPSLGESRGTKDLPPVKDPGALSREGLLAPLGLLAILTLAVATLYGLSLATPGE
Summary of the method: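 N-terminally His-Tev-tagged enzyme expressed in E. coli, 150 pM, with 60 nM dual-labelled dsDNA (TEX615/quencher) in pH 7.4 Tris buffer with MgCl2, 1% DMSO; 10-point dose-response, 25 min at room temperature, then EDTA quench. Fluorescence at 615 nm (excitation 570 nm); IC50 from four-parameter fit against pre-quenched and no-inhibitor controls.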

SMILES: COc1ccc(-c2cncc(N3CCC(O)(c4ccc(F)cc4)CC3)n2)cc1 [Example 29, 4-(4-fluorophenyl)-1-(6-(4-methoxyphenyl)pyrazin-2-yl)piperidin-4-ol]
IC50 [1]: > 100 µM | IC50 [2]: > 10 µM

SMILES: Cc1nn(C)cc1-c1cccc(N2CCC(O)(c3ccc(F)c(F)c3)CC2)n1 [Example 42, 4-(3,4-difluorophenyl)-1-(6-(1,3-dimethyl-1H-pyrazol-4-yl)pyridin-2-yl)piperidin-4-ol]
IC50 [1]: > 100 µM | IC50 [2]: 1 to 10 µM

SMILES: OC1(c2ccc(F)cc2)CCN(c2cncc(-c3ccc(F)cc3)n2)CC1 [Example 27, 4-(4-fluorophenyl)-1-(6-(4-fluorophenyl)pyrazin-2-yl)piperidin-4-ol]
IC50 [1]: > 100 µM | IC50 [2]: > 10 µM

SMILES: CS(=O)(=O)c1ccc(-c2cncc(N3CCC(O)(c4ccc(F)cc4)CC3)n2)cc1 [Example 22, 4-(4-fluorophenyl)-1-(6-(4-(methylsulfonyl)phenyl)pyrazin-2-yl)piperidin-4-ol]
IC50 [1]: > 100 µM | IC50 [2]: 1 to 10 µM

SMILES: COc1ccccc1-c1cncc(N2CCC(O)(c3ccc(F)cc3)CC2)n1 [Example 28, 4-(4-fluorophenyl)-1-(6-(2-methoxyphenyl)pyrazin-2-yl)piperidin-4-ol]
IC50 [1]: > 100 µM | IC50 [2]: > 10 µM

SMILES: N#Cc1cccc(-c2cncc(N3CCC(O)(c4ccc(F)cc4)CC3)n2)c1 [Example 24, 3-(6-(4-(4-fluorophenyl)-4-hydroxypiperidin-1-yl)pyrazin-2-yl)benzonitrile]
IC50 [1]: > 100 µM | IC50 [2]: > 10 µM

SMILES: OC1(c2ccc(F)cc2)CCN(c2cncc(-c3cccc(C(F)(F)F)c3)n2)CC1 [Example 32, 4-(4-fluorophenyl)-1-(6-(3-(trifluoromethyl)phenyl)pyrazin-2-yl)piperidin-4-ol]
IC50 [1]: > 100 µM | IC50 [2]: > 10 µM

SMILES: Cc1nn(C)cc1-c1cncc(N2CCC(O)(c3ccc(F)cc3)CC2)n1 [Example 8, 1-(6-(1,3-dimethyl-1H-pyrazol-4-yl)pyrazin-2-yl)-4-(4-fluorophenyl)piperidin-4-ol]
IC50 [1]: > 100 µM | IC50 [2]: 0.1 to 1 µM

SMILES: CNC(=O)c1ccc(-c2cncc(N3CCC(O)(c4ccc(F)cc4)CC3)n2)cc1 [Example 21, 4-(6-(4-(4-fluorophenyl)-4-hydroxypiperidin-1-yl)pyrazin-2-yl)-N-methylbenzamide]
IC50 [1]: > 100 µM | IC50 [2]: 1 to 10 µM

SMILES: OC1(c2ccccc2F)CCN(c2cncc(-n3cccn3)n2)CC1 [Example 3, 1-(6-(1H-pyrazol-1-yl)pyrazin-2-yl)-4-(2-fluorophenyl)piperidin-4-ol]
IC50 [1]: > 100 µM | IC50 [2]: > 10 µM

SMILES: Cn1cc(-c2cncc(N3CCC(O)(Cc4ccccc4)CC3)n2)cn1 [Example 5, 4-benzyl-1-(6-(1-methyl-1H-pyrazol-4-yl)pyrazin-2-yl)piperidin-4-ol]
IC50 [1]: > 100 µM | IC50 [2]: > 10 µM

SMILES: Cn1cc(-c2cncc(N3CCC(O)(c4ccc(F)c(F)c4)CC3)n2)c(C(F)(F)F)n1 [Example 10, 4-(3,4-difluorophenyl)-1-(6-(1-methyl-3-(trifluoromethyl)-1H-pyrazol-4-yl)pyrazin-2-yl)piperidin-4-ol]
IC50 [1]: 10 to 100 µM | IC50 [2]: < 0.1 µM

SMILES: Cc1ccc(-c2cncc(N3CCC(O)(c4ccc(F)c(F)c4)CC3)n2)c(C)n1 [Example 17, 4-(3,4-difluorophenyl)-1-(6-(2,6-dimethylpyridin-3-yl)pyrazin-2-yl)piperidin-4-ol]
IC50 [1]: 10 to 100 µM | IC50 [2]: 0.1 to 1 µM

SMILES: N#Cc1ccc(-c2cncc(N3CCC(O)(c4ccc(F)cc4)CC3)n2)cc1 [Example 30, 4-(6-(4-(4-fluorophenyl)-4-hydroxypiperidin-1-yl)pyrazin-2-yl)benzonitrile]
IC50 [1]: > 100 µM | IC50 [2]: 1 to 10 µM

SMILES: Cc1nn(C)cc1-c1cc(C(N)=O)cc(N2CCC(O)(c3ccc(F)c(F)c3)CC2)n1 [Example 39, 2-(4-(3,4-difluorophenyl)-4-hydroxypiperidin-1-yl)-6-(1,3-dimethyl-1H-pyrazol-4-yl)isonicotinamide]
IC50 [1]: 10 to 100 µM | IC50 [2]: < 0.1 µM

SMILES: Cc1nn(C)cc1-c1cc(C(=O)N2CCCCC2)cc(N2CCC(O)(c3ccc(F)c(F)c3)CC2)n1 [Example 41, (2-(4-(3,4-difluorophenyl)-4-hydroxypiperidin-1-yl)-6-(1,3-dimethyl-1H-pyrazol-4-yl)pyridin-4-yl)(piperidin-1-yl)methanone]
IC50 [1]: 10 to 100 µM | IC50 [2]: < 0.1 µM

SMILES: Cn1cc(-c2ccnc(N3CCC(O)(c4ccc(F)cc4)CC3)n2)cn1 [Example 37, 4-(4-fluorophenyl)-1-(4-(1-methyl-1H-pyrazol-4-yl)pyrimidin-2-yl)piperidin-4-ol]
IC50 [1]: > 100 µM | IC50 [2]: 1 to 10 µM

Now from value to compound:

IC50 [1]: > 100 µM | IC50 [2]: 1 to 10 µM
SMILES: Cc1nn(C)cc1-c1nccc(N2CCC(O)(c3ccc(F)c(F)c3)CC2)n1 [Example 54, 4-(3,4-difluorophenyl)-1-(2-(1,3-dimethyl-1H-pyrazol-4-yl)pyrimidin-4-yl)piperidin-4-ol]

IC50 [1]: > 100 µM | IC50 [2]: > 10 µM
SMILES: O=C(NCc1ccncc1)c1cncc(N2CCC(O)(c3ccc(F)cc3)CC2)n1 [Example 65, 6-(4-(4-fluorophenyl)-4-hydroxypiperidin-1-yl)-N-(pyridin-4-ylmethyl)pyrazine-2-carboxamide]

IC50 [1]: 10 to 100 µM | IC50 [2]: < 0.1 µM
SMILES: Cc1nn(C)cc1-c1cncc(N2CCC(O)(c3cc(F)c(F)c(F)c3)CC2)n1 [Example 47, 1-(6-(1,3-dimethyl-1H-pyrazol-4-yl)pyrazin-2-yl)-4-(3,4,5-trifluorophenyl)piperidin-4-ol]

IC50 [1]: > 100 µM | IC50 [2]: 1 to 10 µM
SMILES: O=C(NCCc1ccccc1)c1cncc(N2CCC(O)(c3ccc(F)cc3)CC2)n1 [Example 64, 6-(4-(4-fluorophenyl)-4-hydroxypiperidin-1-yl)-N-phenethylpyrazine-Z-carboxamide]

IC50 [1]: > 100 µM | IC50 [2]: 0.1 to 1 µM
SMILES: Cc1nn(C)cc1-c1cncc(N2CCC(O)(c3ccc(F)cc3)C(F)(F)C2)n1 (centres unmarked) [Example 56, 1-(6-(1,3-dimethyl-1H-pyrazol-4-yl)pyrazin-2-yl)-3,3-difluoro-4-(4-fluorophenyl)piperidin-4-ol]

IC50 [1]: > 100 µM | IC50 [2]: > 10 µM
SMILES: CN1CCN(C(=O)c2cncc(N3CCC(O)(c4ccc(F)cc4)CC3)n2)CC1 [Example 67, (6-(4-(4-fluorophenyl)-4-hydroxypiperidin-1-yl)pyrazin-2-yl)(4-methylpiperazin-1-yl)methanone]

IC50 [1]: > 100 µM | IC50 [2]: 0.1 to 1 µM
SMILES: Cc1nc(-c2cn(C)nc2-c2ccccc2)cc(N2CCC(O)(c3ccc(F)c(F)c3)CC2)n1 [Example 100, 4-(3,4-difluorophenyl)-1-(2-methyl-6-(1-methyl-3-phenyl-1H-pyrazol-4-yl)pyrimidin-4-yl)piperidin-4-ol]

IC50 [1]: > 100 µM | IC50 [2]: 1 to 10 µM
SMILES: OC1(c2ccc(F)cc2)CCN(c2nccc(-n3cccn3)n2)CC1 [Example 80, 1-(4-(1H-pyrazol-1-yl)pyrimidin-2-yl)-4-(4-fluorophenyl)piperidin-4-ol]

IC50 [1]: > 100 µM | IC50 [2]: 0.1 to 1 µM
SMILES: Cc1nn(C)cc1-c1ccnc(N2CCC(O)(c3ccc(F)c(F)c3)CC2)n1 [Example 51, 4-(3,4-difluorophenyl)-1-(4-(1,3-dimethyl-1H-pyrazol-4-yl)pyrimidin-2-yl)piperidin-4-ol]

IC50 [1]: > 100 µM | IC50 [2]: 1 to 10 µM
SMILES: Cc1ncc(-c2cnn(C)c2)nc1N1CCC(O)(c2ccc(F)c(F)c2)CC1 [Example 89, 4-(3,4-difluorophenyl)-1-(3-methyl-6-(1-methyl-1H-pyrazol-4-yl)pyrazin-2-yl)piperidin-4-ol]

IC50 [1]: > 100 µM | IC50 [2]: 1 to 10 µM
SMILES: OC1(c2ccc(F)cc2)CCN(c2ccc3nccn3n2)CC1 [Example 81, 4-(4-fluorophenyl)-1-(imidazo[1,2-b]pyridazin-6-yl)piperidin-4-ol]

IC50 [1]: > 100 µM | IC50 [2]: 1 to 10 µM
SMILES: Cc1nn(C)cc1-c1cc(N2CCC(O)(c3ccc(F)c(F)c3)CC2)cnn1 [Example 87, 4-(3,4-difluorophenyl)-1-(6-(1,3-dimethyl-1H-pyrazol-4-yl)pyridazin-4-yl)piperidin-4-ol]

IC50 [1]: > 100 µM | IC50 [2]: 0.1 to 1 µM
SMILES: Cc1cc(-c2cn(C)nc2C)nc(N2CCC(O)(c3ccc(F)c(F)c3)CC2)c1 [Example 43]

IC50 [1]: > 100 µM | IC50 [2]: > 10 µM
SMILES: CN(C)CCCNC(=O)c1cncc(N2CCC(O)(c3ccc(F)cc3)CC2)n1 [Example 70, N-(3-(dimethylamino)propyl)-6-(4-(4-fluorophenyl)-4-hydroxypiperidin-1-yl)pyrazine-2-carboxamide]
